The values that follow come from US8748464B2, “Use of SIRT1 activators or inhibitors to modulate an immune response” (The J. David Gladstone Institutes, priority 2008, dated 2014).

Test [1] deals with FLAG-FoxP3 in 293 T cells. Briefly: Western blot of FLAG-FoxP3 (wild type or mutant) or FLAG-AML1/Runx1 expression in 293 T cells. It counts as cell-based. Conditions: 293 T cells. On the procedure: To determine whether the three newly identified acetylated lysine residues regulate FoxP3 stability, mutants were generated in which each of three lysine residues was substituted to arginines (KR), a conservative mutation that preserves the positive charge of the residue.
To investigate the effect of SIRT1 inhibition and the three newly identified acetylation sites on FoxP3 protein stability, wild type and 3KR mutant FoxP3 protein expression was measured after treatment with cycloheximide (CHX), a general inhibitor of protein translation.
(B) Scheme of acetylated lysine residues identified by mass spectrometry using immunoprecipitated FLAG-FoxP3 protein. The murine protein is shown.

The test system of test [2] is FLAG-FoxP3 in 293 T cells. Kind of test: Immunoprecipitation/western blot of acetylated FLAG-FoxP3 or HA-AML1/Runx1 in 293 T cells cotransfected with p300. The format is cell-based. The text has this: FIGS. 10A-D. SIRT1 interacts with FoxP3 and inhibition of SIRT1 deacetylase activity increases acetylation of FoxP3. (A) Communoprecipitation/western blot analysis of FLAG-tagged FoxP3 and HA-tagged SIRT1 after transfection of corresponding expression vectors or empty vector controls into 293T cells. (B) Communoprecipitation assay of SIRT1 and FoxP3 deletion mutants. A schematic summary of the binding of FoxP3 mutants to SIRT1 is shown. The forkhead box (FH) indicates the DNA binding domain ZnF, zinc finger domain; LZ, leucine zipper. […] An expression vector for the p300 acetyltransferase was cotransfected with FoxP3. (D) The same experiment as in (C) using HA-AML1/Runx1. Immunoprecipitations were performed with either anti-FLAG antibody coupled to agarose (α-FLAG agarose) (C) or anti-hemagglutinin antibody coupled to agarose (α-HA agarose) (D) and western blotting with rabbit polyclonal antibody to acetyl-lysine (α-acetyl lysine) (α-AcK), α-FLAG or α-HA antibodies.
In general terms: In western blotting, separated proteins are transferred to a membrane and probed.

Test [3] has as its system Jurkat T cells. Briefly: Real-time RT-PCR of IL-2 mRNA in α-CD3/28-activated Jurkat T cells. The format is cell-based, human.
Description: Viral supernatant containing 1500 ng of p24 was used to infect 18×10^6 JurkatT cells. Infections were carried out in 6-well plates at 2400 rpm in a Beckman-Coulter centrifuge for 2 h at 32° C. in the presence of polybrene (1 μg/ml, Sigma).
Total RNA was extracted using RNA STAT-60 reagent (Tel-Test) according to the manufacturer's instruction. The first strand cDNA was generated using 2 μg of total RNA and SuperScript reverse transcriptase (Invitrogen). […] Relative gene expression ratios between stimulated and nonstimulated conditions were calculated by the equation, ratio=2^−ΔΔCt, comparative Ct method (Applied Biosystems).
Infected cultures were activated for 2 h and 8 h with α-CD3/28 antibodies. (B) Real-time RT-PCR analysis of IL-2 mRNA levels in infected cultures 2 h after activation with α-CD3/28.
Test [4] concerns the target T1, SIRT1 (Homo sapiens, UniProt Q96EB6).
T1 sequence (Q96EB6 1-747): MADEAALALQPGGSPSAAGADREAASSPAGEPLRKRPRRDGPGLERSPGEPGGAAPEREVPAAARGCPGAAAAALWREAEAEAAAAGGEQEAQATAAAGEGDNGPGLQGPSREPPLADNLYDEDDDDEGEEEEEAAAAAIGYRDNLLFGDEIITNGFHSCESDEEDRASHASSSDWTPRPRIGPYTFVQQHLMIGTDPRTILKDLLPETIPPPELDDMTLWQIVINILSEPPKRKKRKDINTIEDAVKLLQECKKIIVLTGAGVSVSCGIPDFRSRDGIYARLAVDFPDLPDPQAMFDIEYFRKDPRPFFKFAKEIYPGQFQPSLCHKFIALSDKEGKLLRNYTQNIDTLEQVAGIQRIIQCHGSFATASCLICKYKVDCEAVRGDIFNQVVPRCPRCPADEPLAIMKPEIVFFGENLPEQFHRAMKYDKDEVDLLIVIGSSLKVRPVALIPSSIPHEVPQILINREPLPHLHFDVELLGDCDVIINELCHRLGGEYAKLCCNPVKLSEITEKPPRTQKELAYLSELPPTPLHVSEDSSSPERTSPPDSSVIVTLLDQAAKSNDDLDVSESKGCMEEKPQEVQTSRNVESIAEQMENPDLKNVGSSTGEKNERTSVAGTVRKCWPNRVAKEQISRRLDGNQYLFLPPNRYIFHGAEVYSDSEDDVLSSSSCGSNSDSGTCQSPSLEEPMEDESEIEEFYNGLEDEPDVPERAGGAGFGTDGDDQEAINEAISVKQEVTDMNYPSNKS
Briefly: In vitro deacetylation of acetylated recombinant p65 by recombinant SIRT1, western blot α-AcK310 p65. Conditions: synthetic Tat 0.1 μg or nicotinamide 10 mM, preincubated 15 min; NAD 1 mM, 3 h, 37° C. Also noted: purchased Biomol. It counts as biochemical. How it is done: Recombinant p65 protein prepared from baculovirus-infected Sf9 insect cells (BD Biosciences) was acetylated by immunoprecipitated p300 overexpressed in 293 cells as previously described (Chen et al., 2005). Acetylated p65 protein was incubated with recombinant SIRT1 (1 μg/5U; Biomol) in SIRT1 deacetylase buffer (50 mM Tris-HCl pH 9, 4 mM MgCl2, 0.2 mM DTT) in the presence of NAD (1 mM; Sigma) for 3 h at 37° C. […] Reactions were stopped by the addition of SDS loading buffer, boiled, and after brief centrifugation, analyzed by western blotting with rabbit a-AcK310 p65 (Chen et al., 2005) or mouse α-p65 antibodies (sc-8008, Santa Cruz).
Next, we examined the effect of Tat on deacetylation of p65. In vitro acetylated recombinant p65 protein was incubated with recombinant SIRT1 and synthetic Tat proteins. The extent of deacetylation was determined by western blotting with antibody specific for acetylated K310 in p65 (α-AcK310 p65). […]
FIGS. 5A-D. Tat inhibits the SIRT1 deacetylase activity (A) In vitro deacetylation assay of recombinant SIRT1 in the presence of synthetic Tat (aa 1-72). The rate of 1 μM SIRT1 was calculated for 200 μM fluorogenic deacetylase substrate (aa 379-382 of p53) in the presence of twelve concentrations of synthetic Tat. […] Total cell lysates were analyzed by western blotting with α-AcK310 p65 or α-T7 antibodies. […]

The subject of test [5] is Jurkat T cells. Briefly: IL-2 protein ELISA in supernatant of α-CD3-stimulated Jurkat T cells infected with EF-1α-GFP or EF-1α-Tat-GFP viruses. The format is cell-based, human. Conditions: 16 hrs. How it is done:
Lentiviral vectors, which contained the heterologous elongation factor 1α (EF-1α) promoter driving Tat and GFP expression, were generated. High titer viral stocks were produced and used to infect Jurkat T cells. […] Infected cultures were stimulated with antibodies specific for the CD3 receptor and treated with increased concentrations of resveratrol (0.4 μM, 2 μM, and 10 μM), a known SIRT1 activator for 16 hrs. IL-2 protein was measured in the culture supernatant by ELISA assay. Following stimulation with α-CD3 antibody, IL-2 protein was superinduced ˜4-fold by wild type Tat (FIG. 8A). In cells expressing Tat, ˜2300 pg/ml of IL-2 protein was detected in response to α-CD3 treatment, whereas in control cells, only ˜600 pg/ml of IL-2 protein was induced.
The effects of small molecule of SIRT1 ([…]) on T cell hyperactivation in Tat-expressing cells were examined. Jurkat T cells were infected with EF-1α-GFP or EF-1α-Tat-GFP viruses (FIG. 8B). Infected cultures were stimulated with α-CD3 antibody and treated with SRT2183 (0.2, 1, and 5 μM) for 16 hrs.
FIGS. 8A and 8B. Resveratrol and small molecule activator of SIRT1 (SRT2183) suppresses T cell hyperactivation by Tat. (A) IL-2 protein levels measured by ELISA in the supernatant of infected cultures. 24 hrs after infection with EF1α-GFP and EF1α-Tat-GFP viruses, Jurkat T cells were stimulated with α-CD3 antibody in the presence of increased concentrations of resveratrol (0.4, 2, and 10 μM) for 16 hrs. (B) 24 hrs after infection with EF1α-GFP and EF1α-Tat-GFP viruses, Jurkat T cells were stimulated with α-CD3 antibody in the presence of increased concentrations of SRT2183 (0.2, 1, and 5 μM) for 16 hrs. IL-2 protein levels were measured by ELISA in the supernatant of infected cultures.
In general terms: ELISA stands for enzyme-linked immunosorbent assay.

The target in test [6] is T1, SIRT1. Particulars: Howitz et al. 2003; Baur et al. 2006; cited from earlier work.

Take `NC(=O)c1cccnc1` [nicotinamide]: the “FoxP3 mRNA levels” value in test [1] is “No effect”. The FoxP3 protein expression result in test [1] (nicotinamide 5 mM, Ex-527 50 μM or TSA 400 nM, 16 hours) is on record as “upregulation of protein expression”. In test [2], the “acetylation levels of FoxP3” value is “increased acetylation levels of FoxP3” and the “acetylation of AML1/Runx1” value is recorded as “increased to the same extent”. Moreover, the “effect of combination with Tat on IL-2 expression” value in the test with Jurkat T cells [3] is on record as “no additive effect”. For the same molecule, in the test with Jurkat T cells [3] (noninfected Jurkat T cells, nicotinamide 10 mM 1 h before α-CD3/28), the “IL-2 mRNA levels” value was “superinduced IL-2 mRNA to similar levels as Tat”. At SIRT1 [4], the “deacetylation of p65 (K310) by SIRT1” value is listed as “same inhibition of p65 deacetylation”.
With `Oc1ccc(/C=C/c2cc(O)cc(O)c2)cc1` [resveratrol], the “ability of Tat to superinduce IL-2 production” value in the test with Jurkat T cells [5] (10 μM) is reported as “completely impaired”. Also, in the test with Jurkat T cells [5] (0.4, 2 and 10 μM), the “superinduction of IL-2 protein in Tat-expressing cells” value was “abolished by resveratrol in a concentration dependent manner”. Besides, the “activation of SIRT1 enzymatic activity” value on SIRT1 [6] was “(weak) reversible activator”.
